Assay results reported in US6656932B2, “Benzo thiadiazine matrix metalloproteinase inhibitors” (Warner-Lambert Company, priority 2001, dated 2003).

What was measured:
Format in all cases: biochemical
[1] = target: MMP-3CD (catalytic domain of stromelysin-1) (Homo sapiens, UniProt P08254); test: Thiopeptolide hydrolysis assay, MMP-3CD; conditions: Table 2; thiopeptolide substrate, MES buffer pH 6.0; read-out: IC50 (μM) Versus Certain MMPs: MMP03 (CD)
Procedure: (§1) The invention compounds of Formula I have been evaluated in standard assays for their ability to inhibit the catalytic activity of various MMP enzymes.
(§2) Thiopeptolide substrates show virtually no decomposition or hydrolysis at or below neutral pH in the absence of a matrix metalloproteinase enzyme.
(§3) Several representative compounds have been evaluated for their ability to inhibit various matrix metalloproteinase enzymes.
It should be appreciated that the assay buffer used with MMP-3CD was 50 mM of N-morpholinoethane sulfonate (“MES”) at pH 6.0 rather than the HEPES buffer at pH 7.0 described above.

[2] = target: MMP-13CD (catalytic domain of collagenase 3) (Homo sapiens, UniProt P45452); test: Thiopeptolide hydrolysis assay, MMP-13CD; conditions: Table 2; thiopeptolide substrate, HEPES pH 7.0; read-out: IC50 (μM) Versus Certain MMPs: MMP13 (CD)
From the text: as §1, §2, §3

[3] = target: MMP-9FL (full-length Gelatinase B) (Homo sapiens, UniProt P14780); test: Thiopeptolide hydrolysis assay, MMP-9FL; conditions: Table 2; thiopeptolide substrate, HEPES pH 7.0; read-out: IC50 (μM) Versus Certain MMPs: MMP09 (FL)
From the text: as §1, §2, §3

[4] = target: T1, MMP-7FL (full-length matrilysin) (Homo sapiens, UniProt P09237); test: Thiopeptolide hydrolysis assay, MMP-7FL; conditions: Table 2; thiopeptolide substrate, HEPES pH 7.0; read-out: IC50 (μM) Versus Certain MMPs: MMP07 (FL)
T1 sequence (P09237 95-267): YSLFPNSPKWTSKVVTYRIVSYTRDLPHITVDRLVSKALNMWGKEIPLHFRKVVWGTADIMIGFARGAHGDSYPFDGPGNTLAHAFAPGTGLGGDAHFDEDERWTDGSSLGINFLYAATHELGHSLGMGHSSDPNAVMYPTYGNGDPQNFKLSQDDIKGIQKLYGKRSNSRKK
From the text: as §1, §2, §3

[5] = target: T2, MMP-1FL (full-length interstitial collagenase) (Homo sapiens, UniProt P03956); test: Thiopeptolide hydrolysis assay, MMP-1FL; conditions: Table 2; thiopeptolide substrate, HEPES pH 7.0; read-out: IC50 (μM) Versus Certain MMPs: MMP01 (FL)
T2 sequence (P03956 100-469): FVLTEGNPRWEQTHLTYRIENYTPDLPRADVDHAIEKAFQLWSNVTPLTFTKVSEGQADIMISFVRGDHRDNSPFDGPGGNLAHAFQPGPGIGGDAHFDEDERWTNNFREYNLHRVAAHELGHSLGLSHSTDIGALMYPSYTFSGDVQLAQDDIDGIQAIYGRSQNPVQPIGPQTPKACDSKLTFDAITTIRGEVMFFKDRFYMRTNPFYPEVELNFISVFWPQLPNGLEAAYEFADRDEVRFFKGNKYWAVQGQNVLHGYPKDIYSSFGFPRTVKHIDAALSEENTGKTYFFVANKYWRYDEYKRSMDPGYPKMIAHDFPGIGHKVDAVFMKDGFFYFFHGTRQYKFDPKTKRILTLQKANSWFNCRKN
From the text: as §1, §2, §3

[6] = target: T3, MMP-2FL (full-length Gelatinase A) (Homo sapiens, UniProt P08253); test: Thiopeptolide hydrolysis assay, MMP-2FL; conditions: Table 2; thiopeptolide substrate, HEPES pH 7.0; read-out: IC50 (μM) Versus Certain MMPs: MMP02 (FL)
T3 sequence (P08253 110-660): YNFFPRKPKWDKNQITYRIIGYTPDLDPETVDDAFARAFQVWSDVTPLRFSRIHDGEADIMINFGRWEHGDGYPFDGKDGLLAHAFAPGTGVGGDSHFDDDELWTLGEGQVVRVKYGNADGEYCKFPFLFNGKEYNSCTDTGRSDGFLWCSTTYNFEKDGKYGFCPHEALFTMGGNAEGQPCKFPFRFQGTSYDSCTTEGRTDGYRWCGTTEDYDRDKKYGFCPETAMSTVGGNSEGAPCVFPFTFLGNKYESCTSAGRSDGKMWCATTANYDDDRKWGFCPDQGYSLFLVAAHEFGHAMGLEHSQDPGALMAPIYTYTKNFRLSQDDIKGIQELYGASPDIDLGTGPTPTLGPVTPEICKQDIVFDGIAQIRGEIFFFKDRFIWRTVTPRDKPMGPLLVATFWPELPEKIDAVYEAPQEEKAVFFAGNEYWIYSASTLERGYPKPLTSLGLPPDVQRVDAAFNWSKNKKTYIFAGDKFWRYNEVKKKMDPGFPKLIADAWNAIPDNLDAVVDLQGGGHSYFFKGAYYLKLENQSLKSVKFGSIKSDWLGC
From the text: as §1, §2, §3

[7] = target: MMP-14CD (catalytic domain of MMP-14) (Homo sapiens, UniProt P50281); test: Thiopeptolide hydrolysis assay, MMP-14CD; conditions: Table 2; thiopeptolide substrate, HEPES pH 7.0; read-out: IC50 (μM) Versus Certain MMPs: MMP14 (CD)
From the text: as §1, §2, §3

MMP-3CD (catalytic domain of stromelysin-1), sequence (P08254 100-272 limits assumed): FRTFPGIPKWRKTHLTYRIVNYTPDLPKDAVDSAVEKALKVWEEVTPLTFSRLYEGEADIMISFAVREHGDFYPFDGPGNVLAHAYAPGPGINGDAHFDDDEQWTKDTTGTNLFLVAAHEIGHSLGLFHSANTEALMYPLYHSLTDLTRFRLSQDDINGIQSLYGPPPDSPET
MMP-9FL (full-length Gelatinase B), sequence (P14780 94-707, species assumed): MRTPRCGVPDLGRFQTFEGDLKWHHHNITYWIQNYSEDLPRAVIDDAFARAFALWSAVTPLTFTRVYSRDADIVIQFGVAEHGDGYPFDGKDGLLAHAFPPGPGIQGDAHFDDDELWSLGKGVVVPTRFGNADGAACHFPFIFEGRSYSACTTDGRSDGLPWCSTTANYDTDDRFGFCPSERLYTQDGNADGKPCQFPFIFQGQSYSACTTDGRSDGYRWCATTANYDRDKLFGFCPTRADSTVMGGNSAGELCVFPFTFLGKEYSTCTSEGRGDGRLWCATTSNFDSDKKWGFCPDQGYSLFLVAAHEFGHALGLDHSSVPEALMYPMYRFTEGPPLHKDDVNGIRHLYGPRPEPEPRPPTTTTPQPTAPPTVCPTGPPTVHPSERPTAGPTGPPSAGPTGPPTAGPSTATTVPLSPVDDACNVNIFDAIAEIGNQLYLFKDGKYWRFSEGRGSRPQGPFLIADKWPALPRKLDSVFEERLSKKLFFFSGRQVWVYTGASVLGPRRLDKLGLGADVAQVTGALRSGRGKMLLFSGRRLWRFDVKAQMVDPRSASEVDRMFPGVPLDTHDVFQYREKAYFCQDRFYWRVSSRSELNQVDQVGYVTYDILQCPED

## COc1ccc(CNC(=O)c2ccc3c(c2)S(=O)(=O)N(Cc2ccccc2)C(=O)N3C)cc1 [Example 5, 2-Benzyl-4-methyl-1,1,3-trioxo-1,2,3,4-tetrahydro-1l^6-benzo[1,2,4]thiadiazine-7-carboxylic acid 4-methoxy-benzylamide]
[1]
  IC50: > 30 µM
[2]
  IC50: 0.17 µM
[3]
  IC50: > 30 µM
[4]
  IC50: 51 µM
[5]
  IC50: > 30 µM
[6]
  IC50: > 100 µM
[7]
  IC50: > 30 µM

## CN1C(=O)N(Cc2ccc(C(=O)O)cc2)S(=O)(=O)c2cc(C(=O)NCc3ccccc3)ccc21 [Example 11, 4-(7-Benzylcarbamoyl-4-methyl-1,1,3-trioxo-3,4-dihydro-H-1l^6-benzo[1,2,4]thiadiazin-2-ylmethyl)-benzoic Acid]
[1]
  IC50: > 100 µM
[2]
  IC50: 0.066 µM
[3]
  IC50: > 100 µM
[4]
  IC50: > 100 µM
[5]
  IC50: > 100 µM
[6]
  IC50: > 100 µM
[7]
  IC50: > 100 µM

## COc1ccc(CNC(=O)c2ccc3c(c2)S(=O)(=O)N(Cc2ccc(C(=O)O)cc2)C(=O)N3C)cc1 [Example 13, 4-[7-(4-Methoxy-benzylcarbamoyl)-4-methyl-1,1,3-trioxo-3,4-dihydro-1H-1l^6-benzo[1,2,4]thiadiazin-2-ylmethyl]-benzoic Acid]
[1]
  IC50: 64 µM
[2]
  IC50: 0.011 µM
[3]
  IC50: > 100 µM
[4]
  IC50: > 100 µM
[5]
  IC50: > 100 µM
[6]
  IC50: > 100 µM
[7]
  IC50: > 100 µM
